Here are results for 1 compound from PMC7334220, “Diamond Blackfan anemia is mediated by hyperactive Nemo-like kinase” (Nature Communications, 2020).

Series [1] deals with T1, p38 (Homo sapiens, UniProt Q16539).
T1 construct: endogenous in cells; host or cells: Kp53A1 cells stimulated with IL-3, IL-6, SCF and Epo; immunoprecipitated with a p38 antibody
Description: p38 in vitro kinase assay. The series is classed as biochemical. The following applies: Supplementary Fig. 4b; read-out: observed IC50 against p38. Here is the method: Equivalent protein was loaded between samples. b—blue Transduced progenitors were differentiated for 15 days and sorted for surface expression of CD235 + , CD41 + and CD11b + population NLK mRNA was assessed by qRT-PCR. c Control and shRPS19-transduced CB progenitors were differentiated for 10 days prior to separation into CD71^+ and CD71^- populations and assessed for pThr298-NLK phosphorylation by Western blot analysis. d—purple CB CD34 + progenitors were transduced with shRNA against luciferase (shLuc) or RPS19 (shRPS19) along with CFP-NLK and YFP-NLK and differentiated for 10 days. NLK dimerization was quantified by FRET. e—left panel NLK was immunoprecipitated from transduced differentiating CD71^+ and CD71^- populations after 10 days, and incubated in the presence of ATP, Mg^2+ and dephosphorylated NLK (i orange), c-Myb (ii—blue) and Raptor (iii—green) for 30 min at 37 °C. Phosphorylation was detected by a combination of anti^-phosphoserine-HRP and anti-phosphothreonine-HRP antibodies, or mouse anti-phosphoserine and anti-mouse-HRP antibodies. e—right panel For comparison, NLK in vitro kinase activity was assessed from CD235^+, CD41^+ and CD11b^+ populations enriched after identical treatments. f A panel of eight small molecule p38 inhibitors were titrated into in vitro kinase assays in the presence of activated NLK or p38 from stimulated Kp53A1 cells. […]

Series [2] deals with p38. Description: DiscoveRX kinase profile analysis of SD208, p38. The series is classed as biochemical. The following applies: 10 µM; kinase profiling; Supplementary Fig. 2a.
The test system of series [3] is p38. The series can be described thus: Reported p38 inhibition (literature / PubChem). The following applies: 850nM vs 440nM; rebuttal letter. It is filed as biochemical. The source says:
But as p38 can phosphorylate NLK, Myb and Raptor in vitro, we performed a series of experiments that indicate NLK-associated p38 is not contributing to substrate phosphorylation. We determined the IC50 values of a panel of eight p38 inhibitors against p38 and NLK in our in vitro kinase assays. For comparison, reported IC50 values from bioassay results submitted to the National Center for Biotechnology Information PubChem Database were tabulated.

Series [4] relates to RPL11-insufficient Lin-Kit+ HSPCs. The series can be described thus: Erythroid differentiation of Lin-Kit+ HSPCs from tamoxifen-treated RPL11+/lox mice. The following applies: SD208; 8 days; three RPL11+/lox mice; without SD208 31.2, 26.4, 18.6%; Fig. 8b. It is filed as cell-based, mouse. Here is the method: Cells were counted and assessed for cell surface expression of CD235. b Lin-Kit^+ hematopoietic progenitors were obtained from three mouse embryos expressing tetracycline-inducible shRNA against RPS19 at day E14.5 or three untreated mice, and thee mature RPL11^+/+ or three mature RPL11^+/lox mice treated with tamoxifen for eight weeks. […] Values were expressed as a percentage relative to untreated controls. c, d Intracellular phosphorylation of NLK at […] was determined by capillary electrophoresis using the Peggy SueTM Automated Western blotting platform. […] After counting the total cell population, the ratio of CD235^+ erythroblasts was determined by flow cytometry and number of CD235^+ erythroblasts calculated. This was expressed as a percentage of the average number of erythroid cells present in untreated healthy controls. f NLK phosphorylation was assessed by capillary electrophoresis as above. Bars represent means ± SD with individual data points overlaid. […] Statistics: two-tailed Student's t test, significant *p < 0.05. Also see Supplementary Fig. 8. Source data are provided as a Source Data file. Three mature RPL11^+/lox mice were treated with tamoxifen for eight weeks to induce heterozygous deletion of RPL11. As controls, three different RPL11^+/+ littermates of the same mouse strain were treated with tamoxifen.

Another series concerns DBA patient HSPCs. Description: Erythroid differentiation (CD235+) of CD34+ HSPCs from DBA patient bone marrow. The following applies: 5 µM SD208; three DBA patients. The series is classed as cell-based, human. Here is the method:
Cells were counted and assessed for cell surface expression of CD235. b Lin-Kit^+ hematopoietic progenitors were obtained from three mouse embryos expressing tetracycline-inducible shRNA against RPS19 at day E14.5 or three untreated mice, and thee mature RPL11^+/+ or three mature RPL11^+/lox mice treated with tamoxifen for eight weeks. […] Values were expressed as a percentage relative to untreated controls. c, d Intracellular phosphorylation of NLK at Thr298 was determined by capillary electrophoresis using the Peggy Sue™ Automated Western blotting platform. After lysis, 4 µg of protein from the CD235^+ population was probed against pThr298-NLK and normalized to GAPDH. […] After counting the total cell population, the ratio of CD235^+ erythroblasts was determined by flow cytometry and number of CD235^+ erythroblasts calculated. This was expressed as a percentage of the average number of erythroid cells present in untreated healthy controls. f NLK phosphorylation was assessed by capillary electrophoresis as above. Bars represent means ± SD with individual data points overlaid. […] Statistics: two-tailed Student’s t test, significant *p < 0.05. Also see Supplementary Fig. 8. Source data are provided as a Source Data file. […]

For series [5] the following is noted: authors' statement in rebuttal, no data or reference; cited from earlier work.

Values joined by “and” are separate entries in the source; they are usually repeats but may differ in a detail not shown here. Equal values may be shown once.

T1 sequence (Q16539 2-360 limits assumed): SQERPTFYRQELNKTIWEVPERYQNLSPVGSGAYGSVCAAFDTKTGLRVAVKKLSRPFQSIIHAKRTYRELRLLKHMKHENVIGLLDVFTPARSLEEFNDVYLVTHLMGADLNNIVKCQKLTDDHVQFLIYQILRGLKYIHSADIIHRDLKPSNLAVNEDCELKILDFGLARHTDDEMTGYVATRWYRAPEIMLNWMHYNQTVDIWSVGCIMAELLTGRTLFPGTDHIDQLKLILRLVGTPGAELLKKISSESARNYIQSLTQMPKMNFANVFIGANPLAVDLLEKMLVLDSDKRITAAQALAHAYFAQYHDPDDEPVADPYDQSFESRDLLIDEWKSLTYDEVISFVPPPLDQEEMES

Take `Fc1ccc(Cl)cc1-c1nc(Nc2ccncc2)c2nccnc2n1` [SD208]: on p38 [1], the IC50 turned out to be 910 nM. In the series with p38 [2], the “inhibition of p38 kinase activity” value is reported as 99.6%. Besides, the “reported p38 IC50 compared to observed NLK IC50” value with p38 [3] worked out at 2 fold. Further, the “erythropoiesis, % of controls” value in series [4] is 57.3% and 56.8% and 50.3%. Also, the “mean increase of CD235+ erythroblast differentiation with SD208” value in the series on DBA patient HSPCs turned out to be 2.11 fold. In addition, the solubility entry in series [5] was “poor”.
